Laboratory results: patent US20260355212A1 (priority 2022, published 2026)
pIC50: −log10 of the molar value.

These molecules were tested against SARS-CoV-2 Mpro (Severe acute respiratory syndrome coronavirus 2, UniProt P0DTD1) (assay: SARS-CoV-2 Mpro enzymatic inhibition assay (fluorescence)). Settings: not given.
Format: biochemical
Method: The hCoV Mpro are cloned, expressed in E. coli and purified by WuXi AppTec Co., Ltd. The substrate are synthesized by Genscript Biotech.
Compounds are 3 fold serially diluted for 10 doses and added to an assay plate (384w format) using ECHO, in duplicate wells. The test concentration of test compounds is defined by sponsor.
25 μL of Mpro proteins are added to the assay plates containing compounds, respectively, using Multidrop. The compounds and Mpro proteins are pre-incubated at room temperature for 30 min. Then 5 µL of Mpro substrates are added to the related assay plates, respectively.
After 60 min incubation at 30° C., the fluorescence signal (RFU) is detected using a microplate reader M2e (SpectraMax) at Ex/Em=340 nm/490 nm.
The inhibition activity is calculated using the formula below, IC50 values will be calculated using the Inhibition % data.
IC50 values of compounds are calculated with the GraphPad Prism software using the nonlinear regression model of log(inhibitor) vs. response—Variable slope (four parameters).
Molecule `CC1(C)[C@@H]2[C@@H](C(=O)N[C@@H](C[C@@H]3CCNC3=O)C(=O)C(=O)NC3CC3)N(C(=O)C3(c4ccccc4)CC3)C[C@@H]21` [Compound 119, (1R,2S,5S)—N—((S)-4-(cyclopropylamino)-3,4-dioxo-1-((S)-2-oxopyrrolidin-3-yl)butan-2-yl)-6,6-dimethyl-3-(1-phenylcyclopropanecarbonyl)-3-azabicyclo[3.1.0]hexane-2-carboxamide] has a pIC50 of 6.84. Molecule `CC(C)Oc1cccc2[nH]c(C(=O)N3C[C@H]4[C@@H]([C@H]3C(=O)N[C@H](C=O)C[C@@H]3CCNC3=O)C4(C)C)cc12` [Compound 66, (1R,2S,5S)-3-(4-Isopropoxy-1H-indole-2-carbonyl)-6,6-dimethyl-N—((S)-1-oxo-3-((S)-2-oxopyrrolidin-3-yl)propan-2-yl)-3-azabicyclo[3.1.0]hexane-2-carboxamide] has a pIC50 of 7.56. In the case of `COc1ccc2[nH]c(C(=O)N3C[C@H]4[C@@H]([C@H]3C(=O)N[C@H](C=O)C[C@@H]3CCNC3=O)C4(C)C)cc2c1` [Compound 68, (1R,2S,5S)-3-(5-Methoxy-1H-indole-2-carbonyl)-6,6-dimethyl-N—((S)-1-oxo-3-((S)-2-oxopyrrolidin-3-yl)propan-2-yl)-3-azabicyclo[3.1.0]hexane-2-carboxamide], the pIC50 was 7.55. `O=C[C@H](C[C@@H]1CCNC1=O)NC(=O)[C@@H]1C[C@H](C2CCCCC2)CN1C(=O)c1cc2ccccc2[nH]1` [Compound 103, (2S,4R)-4-cyclohexyl-1-(1H-Indole-2-carbonyl)-N—((S)-1-oxo-3-((S)-2-oxopyrrolidin-3-yl)propan-2-yl)pyrrolidine-2-carboxamide] gave a pIC50 of 7.19. `CC(C)(C)[C@H](NC(=O)c1cc2ccccc2[nH]1)C(=O)N1C[C@H]2[C@@H]([C@H]1C(=O)N[C@@H](C[C@@H]1CCNC1=O)C(=O)C(N)=O)C2(C)C` [Compound 116, N—((S)-1-((1R,2S,5S)-2-(((S)-4-amino-3,4-dioxo-1-((S)-2-oxopyrrolidin-3-yl)butan-2-yl)carbamoyl)-6,6-dimethyl-3-azabicyclo[3.1.0]hexan-3-yl)-3,3-dimethyl-1-oxobutan-2-yl)-1H-indole-2-carboxamide] was tested, and the pIC50 was 6.93. For `N#Cc1cccc2cc(C(=O)N3CC4(CC4)C[C@H]3C(=O)N[C@H](C=O)C[C@@H]3CCNC3=O)[nH]c12` [Compound 46, (S)-5-(7-cyano-1H-indole-2-carbonyl)-N—((S)-1-oxo-3-((S)-2-oxopyrrolidin-3-yl)propan-2-yl)-5-azaspiro[2.4]heptane-6-carboxamide], the pIC50 was 7.65. In the case of `CC1(C)[C@@H]2[C@@H](C(=O)N[C@H](C=O)C[C@@H]3CCNC3=O)N(C(=O)c3cc4ccc(C(F)(F)F)cc4[nH]3)C[C@@H]21` [Compound 96], the pIC50 was 7.31. In the case of `COc1cc2[nH]c(C(=O)N3C[C@H]4[C@@H]([C@H]3C(=O)N[C@H](C=O)C[C@@H]3CCNC3=O)C4(C)C)cc2cc1F` [Compound 101, (1R,2S,5S)-3-(5-Fluoro-6-methoxy-1H-indole-2-carbonyl)-6,6-dimethyl-N—((S)-1-oxo-3-((S)-2-oxopyrrolidin-3-yl)propan-2-yl)-3-azabicyclo[3.1.0]hexane-2-carboxamide], the pIC50 was 7.25. For `CC1(C)[C@@H]2[C@@H](C(=O)N[C@H](C=O)C[C@@H]3CCNC3=O)N(C(=O)c3cc4ccc(Cl)cc4[nH]3)C[C@@H]21` [Compound 42, (1R,2S,5S)-3-(6-Chloro-1H-indole-2-carbonyl)-6,6-dimethyl-N—((S)-1-oxo-3-((S)-2-oxopyrrolidin-3-yl)propan-2-yl)-3-azabicyclo[3.1.0]hexane-2-carboxamide], the pIC50 was 7.66. For `CCOc1cccc2[nH]c(C(=O)N3C[C@H]4[C@@H]([C@H]3C(=O)N[C@H](C=O)C[C@@H]3CCNC3=O)C4(C)C)cc12` [Compound 70, (1R,2S,5S)-3-(4-Ethoxy-1H-indole-2-carbonyl)-6,6-dimethyl-N—((S)-1-oxo-3-((S)-2-oxopyrrolidin-3-yl)propan-2-yl)-3-azabicyclo[3.1.0]hexane-2-carboxamide], the pIC50 was 7.52. With `O=C[C@H](C[C@@H]1CCNC1=O)NC(=O)[C@@H]1CC2(CC2)CN1C(=O)c1cc2cccc(F)c2[nH]1` [Compound 87, (S)-5-(7-Fluoro-1H-indole-2-carbonyl)-N—((S)-1-oxo-3-((S)-2-oxopyrrolidin-3-yl)propan-2-yl)-5-azaspiro[2.4]heptane-6-carboxamide] the pIC50 was 7.40. Work on `O=C[C@H](C[C@@H]1CCNC1=O)NC(=O)[C@@H]1C[C@@H](Oc2ccccc2)CN1C(=O)c1cc2ccccc2[nH]1` [Compound 133, (2S,4R)-1-(1H-Indole-2-carbonyl)-N—((S)-1-oxo-3-((S)-2-oxopyrrolidin-3-yl)propan-2-yl)-4-phenoxypyrrolidine-2-carboxamide] yielded a pIC50 of 6.35. `CC1(C)[C@@H]2[C@@H](C(=O)N[C@H](C=O)C[C@@H]3CCNC3=O)N(C(=O)c3cc4c(C5CC5)cccc4[nH]3)C[C@@H]21` [Compound 41, (1R,2S,5S)-3-(4-Cyclopropyl-1H-indole-2-carbonyl)-6,6-dimethyl-N—((S)-1-oxo-3-((S)-2-oxopyrrolidin-3-yl)propan-2-yl)-3-azabicyclo[3.1.0]hexane-2-carboxamide] was tested, and the pIC50 was 7.66. For `CC1(C)[C@@H]2[C@@H](C(=O)N[C@H](C=O)C[C@@H]3CCNC3=O)N(C(=O)c3cc4cc(Cl)cc(Cl)c4[nH]3)C[C@@H]21` [Compound 44, (1R,2S,5S)-3-(5,7-Dichloro-1H-indole-2-carbonyl)-6,6-dimethyl-N—((S)-1-oxo-3-((S)-2-oxopyrrolidin-3-yl)propan-2-yl)-3-azabicyclo[3.1.0]hexane-2-carboxamide], the pIC50 was 7.65. With `CC1(C)[C@@H]2[C@@H](C(=O)N[C@@H](C[C@@H]3CCNC3=O)C(=O)C(=O)NC3CC3)N(C(=O)C3(c4ccccc4)CCCC3)C[C@@H]21` [Compound 99, (1R,2S,5S)—N—((S)-4-(Cyclopropylamino)-3,4-dioxo-1-((S)-2-oxopyrrolidin-3-yl)butan-2-yl)-6,6-dimethyl-3-(1-phenylcyclopentanecarbonyl)-3-azabicyclo[3.1.0]hexane-2-carboxamide] the pIC50 was 7.29. With `O=C[C@H](C[C@@H]1CCNC1=O)NC(=O)[C@@H]1C[C@H](Oc2ccccc2)CN1C(=O)c1cc2ccccc2[nH]1` [Compound 134, (2S,4S)-1-(1H-Indole-2-carbonyl)-N—((S)-1-oxo-3-((S)-2-oxopyrrolidin-3-yl)propan-2-yl)-4-phenoxypyrrolidine-2-carboxamide] the pIC50 was 6.35. For `CC1CCC(CC(=O)N2C[C@H]3[C@@H]([C@H]2C(=O)N[C@@H](C[C@@H]2CCNC2=O)C(=O)C(=O)NC2CC2)C3(C)C)CC1` (stereo partly drawn) [Compound 105, (1R,2S,5S)—N—((S)-4-(Cyclopropylamino)-3,4-dioxo-1-((S)-2-oxopyrrolidin-3-yl)butan-2-yl)-6,6-dimethyl-3-(2-(4-methylcyclohexyl)acetyl)-3-azabicyclo[3.1.0]hexane-2-carboxamide], the pIC50 was 7.14.

Same assay, conditions: mean; 25 nM protein, 25 μM substrate; 30 min pre-incubation, 60 min at 30° C.; read-out: Mpro_SARS-CoV-2 mean IC50
In the case of `CC1(C)C[C@@H](C(=O)N[C@H](C=O)C[C@@H]2CCNC2=O)N(C(=O)c2cc3ccccc3[nH]2)C1` [Compound 57, (S)-1-(1H-Indole-2-carbonyl)-4,4-dimethyl-N—((S)-1-oxo-3-((S)-2-oxopyrrolidin-3-yl)propan-2-yl)pyrrolidine-2-carboxamid], the pIC50 was 7.59.
